Melting point and IC50 data for 28 molecules are collected here from US7494984B2, “Substituted imidazo[1,2-a]pyrimidines as HIV viral DNA integrase inhibitors” (priority 2005, dated 2009).

The target in one series is T1, HIV-integrase (Human immunodeficiency virus type 1 group M subtype B, UniProt P12497).
T1 construct: Recombinant integrase (0.26 ng) was incubated with the beads
The series is described as follows: HIV-Integrase Inhibition Activity (SPA strand transfer assay). Format: biochemical. The settings on record: recombinant integrase, biotin labeled substrate DNA on SPA beads, P33 labeled target DNA; read-out: Activity (IC50 class, HIV-integrase inhibition). On the procedure:
HIV-Integrase Inhibition Activity. To evaluate in-vitro activity against HIV-integrase, 5 pmole of biotin labeled substrate DNA was bound to 100 μg of Streptavidin coated PVT SPA beads (Amersham Pharmacia Biotech). Recombinant integrase (0.26 ng) was incubated with the beads for 90 min at 37° C. Unbound enzyme was removed by washing the complex followed by addition of inhibitors and 0.1 fmol of P33 labeled target DNA. The reaction was stopped by adding EDTA to a final concentration of 10 mM. Samples were counted in TopCountNXT (Packard) and the CPM was used as a measure of integration. The reaction condition was as described in A. Engelman and R. Craigie, J. Virol. 69, 5908-5911 (1995). The sequences of substrate and target DNA were described in Nucleic Acid Research 22,1121-1122 (1994). Activity equal to A refers to a compound having IC50=0.005 to 0.010 μM while B and C denote compounds having IC50=0.010 to 0.030 μM and IC50>0.030 μM respectively.

As usually defined, the melting point is the temperature of the solid-liquid transition. By IC50 is commonly meant the concentration that gives 50% inhibition. `CN1CCn2c1nc(C(=O)NCc1ccc(F)cc1)c(O)c2=O` [Example 1, N-(4Fluorobenzyl)-6-hydroxy-1-methyl-5-oxo-1,2,3,5-tetrahydroimidazo[1,2-a]pyrimidine-7-carboxamide] registered a melting point of 212 °C. Further, the IC50 at HIV-integrase fell in the range of 0.01 to 0.03 µM.
On the same counts, the results for `Cc1cc(CNC(=O)c2nc3n(c(=O)c2O)CCN3C)ccc1F` [Example 2, N-(4-Fluoro-3-methylbenzyl)-6-hydroxy-1-methyl-5-oxo-1,2,3,5-tetrahydroimidazo[1,2-a]pyrimidine-7-carboxamide] are 187 to 189 °C and 0.01 to 0.03 µM.
On the same counts, the results for `CNC(=O)c1cc(F)ccc1CNC(=O)c1nc2n(c(=O)c1O)CCN2C(C)C` [Example 6, N-(4-Fluoro-2-(methylcarbamoyl)benzyl)-6-hydroxy-1-isopropyl-5-oxo-1,2,3,5-tetrahydroimidazo[1,2-a]pyrimidine-7-carboxamide] are 205 °C (dec.) and 0.01 to 0.03 µM.
For the molecule `Cc1ncnn1-c1cc(F)ccc1CNC(=O)c1nc2n(c(=O)c1O)CCN2C(C)C` [Example 10, N-(4-Fluoro-2-(5-methyl-1H-1,2,4-triazol-1-yl)benzyl)-6-hydroxy-1-isopropyl-5-oxo-1,2,3,5-tetrahydroimidazo[1,2-a]pyrimidine-7-carboxamide], the melting point amounted to 212 °C. Further, at HIV-integrase, the IC50 was over 0.03 µM.
As to `CCCCN1CCn2c1nc(C(=O)NCc1ccc(F)cc1C(=O)NC)c(O)c2=O` [Example 13, N-(4-Fluoro-2-(methylcarbamoyl)benzyl)-1-butyl-6-hydroxy-5-oxo-1,2,3,5-tetrahydroimidazo[1,2-a]pyrimidine-7-carboxamide], the melting point is 175 to 177 °C. The IC50 on HIV-integrase lay within 0.01 to 0.03 µM.
In turn, `CCCCN1CCn2c1nc(C(=O)NCc1ccc(F)cc1-n1cnc(C)n1)c(O)c2=O` [Example 15, N-(4-Fluoro-2-(3-methyl-1H-1,2,4-triazol-1-yl)benzyl)-1-butyl-6-hydroxy-5-oxo-1,2,3,5-tetrahydroimidazo[1,2-a]pyrimidine-7-carboxamide] registered a melting point of 214 °C. For the same molecule, the IC50 on HIV-integrase lay within 0.005 to 0.01 µM.
On the same counts, the results for `O=C(NCc1ccc(F)cc1)c1nc2n(c(=O)c1O)CCN2Cc1ccccc1` [Example 16, N-(4-Fluorobenzyl)-1-benzyl-6-hydroxy-5-oxo-1,2,3,5-tetrahydroimidazo[1,2-a]pyrimidine-7-carboxamide] are 225 °C and over 0.03 µM.
On the same counts, the results for `CNC(=O)c1cc(F)ccc1CNC(=O)c1nc2n(c(=O)c1O)CCN2Cc1ccccc1` [Example 18, N-(4-Fluoro-2-(methylcarbamoyl)benzyl)-1-benzyl-6-hydroxy-5-oxo-1,2,3,5-tetrahydroimidazo[1,2-a]pyrimidine-7-carboxamide] are 206 °C (dec.) and 0.01 to 0.03 µM.
On the same counts, the results for `O=C(NCc1ccc(F)cc1-n1cncn1)c1nc2n(c(=O)c1O)CCN2Cc1ccccc1` [Example 19, N-(4-Fluoro-2-(1H-1,2,4-triazol-1-yl)benzyl)-1-benzyl-6-hydroxy-5-oxo-1,2,3,5-tetrahydroimidazo[1,2-a]pyrimidine-7-carboxamide] are 242 °C (dec.) and 0.01 to 0.03 µM.
Turning to `O=C(NCc1ccc(F)cc1-n1cncn1)c1nc2n(c(=O)c1O)CCN2c1ccccc1` [Example 23, N-(4-Fluoro-2-(1H-1,2,4-triazol-1-yl)benzyl)-6-hydroxy-5-oxo-1-phenyl-1,2,3,5-tetrahydroimidazo[1,2-a]pyrimidine-7-carboxamide], the IC50 at HIV-integrase was in the range of 0.005 to 0.01 µM.
The same measure, in the same setting: the figure for `Cc1ncn(-c2cc(F)ccc2CNC(=O)c2nc3n(c(=O)c2O)CCN3c2ccccc2)n1` [Example 24, N-(4-Fluoro-2-(3-methyl-1H-1,2,4-triazol-1-yl)benzyl)-6-hydroxy-5-oxo-1-phenyl-1,2,3,5-tetrahydroimidazo[1,2-a]pyrimidine-7-carboxamide] is 0.005 to 0.01 µM; for `Cc1ncnn1-c1cc(F)ccc1CNC(=O)c1nc2n(c(=O)c1O)CCN2c1ccccc1` [Example 25, N-(4-Fluoro-2-(5-methyl-1H-1,2,4-triazol-1-yl)benzyl)-6-hydroxy-5-oxo-1-phenyl-1,2,3,5-tetrahydroimidazo[1,2-a]pyrimidine-7-carboxamide] it is 0.01 to 0.03 µM.
In the case of `CN(C)S(=O)(=O)c1cc(F)ccc1CNC(=O)c1nc2n(c(=O)c1O)CCN2c1ccccc1` [Example 26, N-(4-Fluoro-2-(N,N-dimethylsulfamoyl)benzyl)-6-hydroxy-5-oxo-1-phenyl-1,2,3,5-tetrahydroimidazo[1,2-a]pyrimidine-7-carboxamide], at HIV-integrase, the IC50 is 0.01 to 0.03 µM.
On to `O=C(NCc1ccc(F)cc1N1CCCC1=O)c1nc2n(c(=O)c1O)CCN2c1ccccc1` [Example 27, N-(4-Fluoro-2-(2-oxopyrrolidin-1-yl)benzyl)-6-hydroxy-5-oxo-1-phenyl-1,2,3,5-tetrahydroimidazo[1,2-a]pyrimidine-7-carboxamide], for which the IC50 at HIV-integrase lay within 0.01 to 0.03 µM.
On to `O=C(NCc1ccc(F)cc1N1CCC1=O)c1nc2n(c(=O)c1O)CCN2c1ccccc1` [Example 28, N-(4-Fluoro-2-(2-oxoazetidin-1-yl)benzyl)-6-hydroxy-5-oxo-1-phenyl-1,2,3,5-tetrahydroimidazo[1,2-a]pyrimidine-7-carboxamide], for which the IC50 on HIV-integrase is 0.005 to 0.01 µM.
`COCCN1CCn2c1nc(C(=O)NCc1ccc(F)cc1)c(O)c2=O` [Example 29, N-(4-Fluorobenzyl)-6-hydroxy-1-(2-methoxyethyl)-5-oxo-1,2,3,5-tetrahydroimidazo[1,2-a]pyrimidine-7-carboxamide]: the melting point turned out to be 166 °C. Further, the concentration for half-maximal inhibition (IC50) on HIV-integrase was 0.01 to 0.03 µM.
Turning to `O=C(NCc1ccc(F)cc1)c1nc2n(c(=O)c1O)CCN2CCO` [Example 30, N-(4-Fluorobenzyl)-6-hydroxy-1-(2-hydroxyethyl)-5-oxo-1,2,3,5-tetrahydroimidazo[1,2-a]pyrimidine-7-carboxamide], the melting point stood at 203 °C. Also, the IC50 at HIV-integrase was 0.01 to 0.03 µM.
As for `O=C(NCc1ccc(F)cc1-n1cncn1)c1nc2n(c(=O)c1O)CCN2CCO` [Example 31, N-(4-Fluoro-2-(1H-1,2,4-triazol-1-yl)benzyl)-6-hydroxy-(2-hydroxyethyl)-5-oxo-1,2,3,5-tetrahydroimidazo[1,2-a]pyrimidine-7-carboxamide], the melting point fell in the range of 220 to 222 °C. In addition, the 50% inhibitory concentration (IC50) at HIV-integrase lay within 0.01 to 0.03 µM.
`O=C(NCc1ccc(F)cc1)c1nc2n(c(=O)c1O)CCN2C1CCCCC1` [Example 32]: on HIV-integrase, the IC50 fell in the range of 0.005 to 0.01 µM.
Still for that read-out and setting: the figure for `Cc1cc(CNC(=O)c2nc3n(c(=O)c2O)CCN3C2CCCCC2)ccc1F` [Example 33] is 0.005 to 0.01 µM; for `O=C(NCc1ccc(F)cc1-n1cncn1)c1nc2n(c(=O)c1O)CCN2C1CCCCC1` [Example 34] it is 0.005 to 0.01 µM.
For `CN(C)S(=O)(=O)c1cc(F)ccc1CNC(=O)c1nc2n(c(=O)c1O)CCN2C1CCCCC1` [Example 35], the IC50 on HIV-integrase is 0.01 to 0.03 µM.
As for `CNC(=O)c1cc(F)ccc1CNC(=O)c1nc2n(c(=O)c1O)CCN2CCOC` [Example 36], the IC50 at HIV-integrase is 0.01 to 0.03 µM.
The same measure, in the same setting: the figure for `COCCN1CCn2c1nc(C(=O)NCc1ccc(F)cc1-n1cncn1)c(O)c2=O` [Example 37] is 0.01 to 0.03 µM; for `COCCN1CCn2c1nc(C(=O)NCc1ccc(F)cc1S(=O)(=O)N(C)C)c(O)c2=O` [Example 38] it is over 0.03 µM; for `COCCN1CCn2c1nc(C(=O)NCc1ccc(F)cc1-n1cnc(C)n1)c(O)c2=O` [Example 39] it is over 0.03 µM.
Same read-out and setting: the figure for `CS(=O)(=O)c1cc(F)ccc1CNC(=O)c1nc2n(c(=O)c1O)CCN2c1ccccc1` [Example 40] is 0.005 to 0.01 µM.
The same measure, in the same setting: under `CCCCN1CCn2c1nc(C(=O)NCc1ccc(F)cc1-n1cncn1)c(O)c2=O` [Example 41] stands 0.01 to 0.03 µM.
